Data taken from patent US11458163B2, “Platinum(IV) conjugates and methods of use” (priority 2019, dated 2022).
Entries after “also recorded” stand apart in the source; their conditions may differ.

Key:
calreticulin (CRT) = experiment: Calreticulin translocation in AT84 cells transfected with mouse CRT-HaloTag-KDEL fusion protein; type: cell-based; details: 500 μM, 12-15 hours (overnight)
Source text: Plasmid: The full cDNA sequence of the insert was published by Golden et al. (21) and codes for a mouse calreticulin-HaloTag®-KDEL fusion protein. The cDNA sequence includes Mus musculus calreticulin (Accession BC003453, Version BC003453.1, CDS 37-1286), the HaloTag® vector (Accession HM157289, Version HM157289.1, CDS 197-1081), and a KDEL sequence. This cDNA sequence was inserted into a mammalian expression vector, pD643-Rc, by DNA2.0 (now ATUM, Newark, Calif.). The vector includes a CayenneRFP reporter protein (Ex:554 nm/Em:590 nm) used to visualize positively transfected cells.
AT84 cells were plated in 6-well culture plates and allowed to grow to ˜90% confluence. Cells were transfected with a plasmid containing a mouse calreticulin-HaloTag®-KDEL fusion protein and a CayenneRFP reporter protein using lipofectamine (Invitrogen, Carlsbad, Calif.). Five microliters of lipofectamine was added to 150 μl Opti-MEM (Gibco, Thermo Fisher Scientific, Waltham, Mass.). Ten micrograms of plasmid DNA was added to 150 μl Opti-MEM. Both solutions were incubated at room temperature for 5 minutes. DNA solution was added to lipofectamine solution and incubated for 20 minutes at room temperature. During incubation, media on the cells were replaced with serum-free media (2 mL). 250 μl of DNA:lipofectamine solution was added dropwise to each well, which contained 2 mL of serum-free media. […]

calf thymus DNAs = details: cited from earlier work
[1] = tested on: naturally occurring cancers; experiment: Open-label compassionate-care clinical trial of intralesional therapy in pet dogs; type: in vivo, dog; details: proposed dose level
Protocol: An open-label, compassionate-care clinical trial was conducted in pet dogs with various types of cancer to evaluate the feasibility of intralesional delivery of Pt(IV)-toco/HA-toco composition as chemotherapy. The most common types of cancer include squamous cell carcinoma, soft tissue sarcoma, and oral melanoma. Typical exclusion criteria such as small breeds, large tumor burden, short life expectancy, metastatic disease, and certain pre-existing conditions (e.g., Cushing's disease) were not implemented in this study.
The reported study was conducted in 18 veterinary hospitals in the Kansas City area. Most pets received either Pt(IV)-toco/HA-toco or HylaPlat treatment at 3-week intervals for up to 10 treatments, ranging from 1 to 17.5 mg/m^2 on cisplatin basis. Clinical chemistry and hematology were obtained before and after each treatment to evaluate the tolerability of the therapy. A physical exam including measurements of tumor(s) was performed approximately every 3-weeks to monitor the response status of the subjects.

[2] = Ongoing tolerability studies in rabbits; type: in vivo; details: proposed dose level
AT84 allografts = experiment: Immunocompetent tumor model: orthotopic AT84 allografts in C3H mice; type: in vivo
Protocol: Wildtype C3H mice (Charles River Strain 025, 6-8 weeks old, 20-25 g) were used for in vivo tumor studies. Both male and female mice were used in the studies. […] Mice were anesthetized using 5% isoflurane in O2 for 5 minutes. One million AT84 cells in 50 μl PBS were injected subcutaneous (s.c.) into the floor of the mouth via an extra-oral route of C3H mice to obtain orthotopic allograft tumors (19,20). […] Under isoflurane anesthesia, Pt(IV)-toco/HA-toco composition (3 mg/kg on Pt(IV)-toco basis) or vehicle (50 μl hyaluronan-tocopherol, 16.7 mg/mL) was injected intratumoral on days 4, 11, and 18 after the tumor cell injection. Tumor size was calculated: tumor volume (mm^3)=0.52×(width)^2×length, where length is the longer of two perpendicular dimensions.

MDA-1986 xenografts = experiment: Immunodeficient tumor model: orthotopic MDA-1986 xenografts in nude mice; type: in vivo
Protocol: Nude mice (Charles River Ath/nu, 6-8 weeks old, 20-25 g) were used for in vivo tumor studies. Both male and female mice were used in the studies. […] Mice were anesthetized using 5% isoflurane in O2 for 5 minutes. One million MDA-1986 cells in 50 μl PBS were injected subcutaneous into the left cheek of nude mice to obtain orthotopic xenograft tumors (13,15). Treatment began when tumors reached 75 mm^3. Under isoflurane anesthesia, Pt(IV)-toco/HA-toco composition (3 mg/kg on Pt(IV)-toco basis) or vehicle (1.5 MDa hyaluronan, 16.7 mg/mL) was injected intratumoral on days 14, 21, and 28 after the tumor cell injection. Tumor size was calculated using the same equation as stated in the C3H model.

[3] = tested on: AT84 murine head and neck squamous cell carcinoma cell line; experiment: Anti-proliferation study, AT84 cells (Resazurin Blue); type: cell-based, mouse; details: 72 hours, n=7-8
Protocol: AT84 cells were derived from a spontaneous squamous cell carcinoma in the oral mucosa of a C3H mouse (19,20) and were gifted by Aldo Venuti (Regina Elena National Cancer Institute, Rome, Italy). Cells tested negative for interspecies contamination (Idexx BioResearch, CellCheck STR profiling). Cells tested negative for rodent pathogens (Idexx BioResearch, IMPACT I PCR profile). Cells tested negative for Mycoplasm contamination (Lonza, Basel, Switzerland, MycoAlert test kit). Cells were cultured in RPMI-1640 media (Gibco, Thermo Fisher Scientific, Waltham, Mass.) supplemented with 10% FBS (Corning Corning, N.Y.), and 100 U/mL penicillin/100 μg/mL streptomycin (HyClone, Thermo Fisher Scientific, Waltham, Mass.) in a humidified incubator at 37° C. and 5% CO2.
AT84 cells were maintained in RPMI-1640 media (Gibco) with 10% fetal bovine serum (Corning), and 100 U/mL penicillin/100 μg/mL streptomycin (HyClone) in a humidified incubator at 37° C. and 5% CO2. Cells were seeded into 96-well plates (3,000 cells/well in 90 ul media) and allowed to attach overnight. […] Fluorescence (λex 550 nm, λem 605 nm) was quantified with a SpectraMax Gemini XS plate-reader (Molecular Devices, Sunnyvale, Calif.). […] Data from at least five separate experiments was analyzed using non-linear regression (GraphPad Prism 5.0) to generate […].

[4] = cited from earlier work
[5] = last pair of measurements vs control, 3 mg/kg intratumoral once per week for 3 weeks

O=C1[O][Pt]2([NH][C@@H]3CCCC[C@H]3[NH]2)[O]C1=O [oxaliplatin, Oxaliplatin]
CRT translocation to the cell surface (indicator of ICD) (calreticulin (CRT)): membrane translocation of CRT is observed; also recorded: show CRT translocation | formation of Pt-DNA adducts relative to cisplatin (calf thymus DNAs): approximately one tenth

Pt(IV)-Su-Gly-Toco [Pt(IV)-toco]
dose-limiting toxicities (renal dysfunction, ototoxicity, peripheral neuropathy) [1]: did not cause any dose-limiting toxicities | dose-limiting toxicities (renal dysfunction, ototoxicity, peripheral neuropathy) [2]: did not cause any dose-limiting toxicities | tumor volume, mean±SEM, last pair of measurements (AT84 allografts; 3 mg/kg on Pt(IV)-toco basis intratumoral, days 4, 11, 18): 1024±129 mm^3 | survival rate (AT84 allografts; by the time all control mice have succumbed): 100% | tumor inhibition (AT84 allografts; [5]): 49% | tumor volume, mean SEM, last pair of measurements (MDA-1986 xenografts; 3 mg/kg on Pt(IV)-toco basis intratumoral, days 14, 21, 28): 812±150 mm^3 | tumor inhibition (MDA-1986 xenografts; [5]): 43%

N.N.[Cl][Pt][Cl] [cisplatin, Cis-Dichlorodiamine platinum (II)]
CRT translocation to the cell surface (indicator of ICD) (calreticulin (CRT)): does not cause CRT translocation to the membrane; also recorded: does not show CRT translocation | IC50 [3]: 3000 ± 260 nM | safety in cats [4]: hydrothorax, pulmonary and mediastinal edema

N.N.O=C([O-])C1(C(=O)[O-])CCC1.[Pt+2] [carboplatin]
safety in cats [4]: may be safe
